What was measured:
[1] = tested on: phenol oxidizing enzyme from Acremonium murorum; test: Bleaching of tomato stains on cotton swatches, phenol oxidizing enzyme/enhancer system, 50 mM Tris buffer wash solution; type: biochemical; settings: enhancer 250 μM, 50 mM Tris buffer pH 9, 30 minutes, 30° C.; for ΔE, stain bleach performance, Oily Tomato Stain, With enzyme / ΔE, stain bleach performance, Tomato Extract, With enzyme: enzyme 20 mg/l
Experimental: (§1) The potential of the various enhancer to boost the bleach performance of phenol oxidizing enzyme was assessed by washing cotton swatches soiled with tomato stains. Two different bleach monitors were used:
(§2) Tomato extract material was prepared by acetone extraction of the chromophores from concentrated tomato paste. For the preparation of the stains, the colored acetone solution was applied to cotton swatches.
(§3) Oily tomato stains were prepared by applying heated concentrated tomato paste, to which 5 wt % Soya oil was added, to cotton swatches.
(§4) The pH of the wash solution was set to pH 9. Purified phenol oxidizing enzyme from Acremonium murorum was added to the wash solution at 20 mg/l. The enzyme from Acremonium murorum is decribed in WO-A-00/05349 (Unilever). The enhancers were all dosed at 250 μM. The wash solution was 50 mM Tris buffer.
(§5) The swatches were washed during 30 minutes, at 30° C. After the wash, the swatches were tumble-dried and the reflectance spectra were measured using a Minolta spectrometer. The color differences between the swatch before and after the wash data were expressed in the CIELAB L*a*b* color space. In this color space, L* indicates lightness and a* and b* are the chromaticity coordinates. Color differences between two swatches are expressed as ΔE, which is calculated from the following equation: […]

[2] = tested on: phenol oxidizing enzyme from Acremonium murorum; test: Bleaching of tomato stains on cotton swatches, phenol oxidizing enzyme/enhancer system, detergent formulation wash solution; type: biochemical; settings: enhancer 250 μM, detergent formulation 2 g/l, 30 minutes, 30° C.; for ΔE, stain bleach performance, Oily Tomato Stain, With enzyme / ΔE, stain bleach performance, Tomato Extract, With enzyme: enzyme 20 mg/l
Experimental: as §1, §2, §3, §4, §5
Example 1 was repeated, using this time as wash solution a detergent formulation having the composition shown below, at a concentration of 2 g/l. The amounts are given in weight %.

## Cc1ccc(S(=O)(=O)Nc2cc(Br)c(O)c(Br)c2Br)cc1 [3Brphenol3MeBSA, N-(2,3,5-tribromo-4-hydroxyphenyl) -4-Methyl benzenesulfonamide]
[1]
  ΔE, stain bleach performance, Oily Tomato Stain, With enzyme: 6.21
  ΔE, stain bleach performance, Oily Tomato Stain, Without enzyme: 1.56
  ΔE, stain bleach performance, Tomato Extract, With enzyme: 19.59
  ΔE, stain bleach performance, Tomato Extract, Without enzyme: 10.86
[2]
  ΔE, stain bleach performance, Oily Tomato Stain, With enzyme: 11.71
  ΔE, stain bleach performance, Oily Tomato Stain, Without enzyme: 6.87
  ΔE, stain bleach performance, Tomato Extract, With enzyme: 27.57
  ΔE, stain bleach performance, Tomato Extract, Without enzyme: 12.86

## O=S(=O)(Nc1cc(Br)c(O)c(Br)c1Br)c1ccccc1 [3BrphenolBSA, N-(2,3,5-tribromo-4-hydroxyphenyl)-benzenesulfonamide]
[1]
  ΔE, stain bleach performance, Oily Tomato Stain, With enzyme: 5.62
  ΔE, stain bleach performance, Oily Tomato Stain, Without enzyme: 4.18
  ΔE, stain bleach performance, Tomato Extract, With enzyme: 19.97
  ΔE, stain bleach performance, Tomato Extract, Without enzyme: 10.33
[2]
  ΔE, stain bleach performance, Oily Tomato Stain, With enzyme: 10.95
  ΔE, stain bleach performance, Oily Tomato Stain, Without enzyme: 6.89
  ΔE, stain bleach performance, Tomato Extract, With enzyme: 26.87
  ΔE, stain bleach performance, Tomato Extract, Without enzyme: 12.99

From patent publication US6323014A, “Method and composition for enhancing the activity of an enzyme” (Unilever Home & Personal Care division of Conopco, Inc., priority 1999, dated 2001)
